Results published in US10576086B2, “Triazine derivatives as interferon-gamma inhibitors” (University of Greenwich, priority 2015, dated 2020).

Tests used:
PBMCs = experiment: Experiment 1: PBMC viability, trypan blue exclusion; type: cell-based, human; conditions: after 24 h incubation
Description: Cell viability was checked using trypan blue exclusion, using 0.04% trypan blue solution (0.4% trypan blue solution (Sigma, UK) diluted 10× with PBS). 10 μl trypan blue solution was mixed with 10 μl cell suspension, and after 5 minutes was mounted onto the haemocytometer. The total number of cells, and the total number of viable (colourless) cells were counted in three 1 mm squares. Viability was greater than 85% in all cases.
(§1) The tubes were incubated at 37° C. for 24 hours under a 5% CO2 atmosphere. After incubation, the cells (>75% viable according to trypan blue test) were centrifuged at 3000 prm for 10 minutes, and the cell-free supernatants were collected and stored at −70° C. before analysis for IFN-γ.

[1] = test system: IFN-γ production in human peripheral blood mononuclear cells (PBMCs); experiment: Experiment 1: IFN-γ production by PHA-stimulated human PBMCs, ELISA; type: cell-based; conditions: for IFN-γ Concentration: PHA 5 μg/ml; for IFN-γ Concentration, Mean: 24 h
Description: The ex vivo activity of various compounds towards suppression of IFN-γ production in human peripheral blood mononuclear cells (PBMCs) was studied.
[…] They were not taking any other prescribed medication that could interfere with the results.
The blood was transferred into 50 ml centrifuge tubes (Corning, USA) containing heparin sodium salt 37.5 mg heparin powder diluted in 300-500 μl phosphate buffered saline (PBS) for 50 ml blood), and centrifuged at 2000 rpm for 10 minutes, and the plasma portion was separated. The plasma was further centrifuged at 3000 rpm for 10 minutes, and the supernatant separated and kept for later use.
The blood cells from the initial centrifugation were diluted with an equal volume of RPMI-1640 (Sigma, UK), and layered (2:1) onto Lymphoprep (Axis-Shield, Norway) in 25 ml universal tubes (Bibby Sterilin, UK) for density gradient centrifugation at 2500 rpm for 30 minutes.
PBMCs (lymphocytes and monocytes) were then removed from the interface, diluted in an equal volume of RPMI-1640 and washed twice by centrifugation at 3000 rpm for 10 minutes.
For testing, the PBMCs were re-suspended in a known volume of culture medium containing RPMI-1640 supplemented with 2 mM L-glutamine, 100 U penicillin, and 100 μg streptomycin (Sigma, UK).
The cell count was determined by the use of a haemocytometer using 10 μl of the cell suspension. The number of cells was determined based on a count in 5 random 1 mm squares.
The cell solution was then diluted with the supplemented RPMI-1640 medium to ensure a cell count of 2×10^6 cells/ml.
The PBMC suspension was added to tissue culture tubes (Bibby Sterilin, UK) with 5% autologous plasma, 5 μg/mlphytohaemaglutinin (PHA) to stimulate T-lymphocyte IFN-γ production, and a solution containing various concentrations of the compound to be studied. A control containing no compound was also cultured for each subject.
In the case of lamotrigine, the isethionate salt was used, and diluted with RPMI-1640 to produce 100 μM, 30 μM, 10 μM and 3 μM solutions that were tested on PBMCs from the first three subjects. With PBMC's from the other two subjects, a 300 μM solution was also tested.
For sipatrigine, the mesylate salt was used, and diluted with RPMI-1640 to produce 30 μM, 10 μM, 3 μM and 1 μM solutions. It was tested on PBMCs from the first three subjects only.
as §1
Levels of IFN-γ produced by the PBMCs were determined by the DuoSet ELISA Development system for human IFN-γ (RD Systems, UK), with a sensitivity of 15.6-1000 pg/ml.
Capture antibody, detection antibody, standard and streptavidin-HRP (streptavidin conjugated to horseradish peroxidase) were provided. A 96-well microtitre plate (Corning CoStar, flat bottom, polystyrene, high binding microtitre plate, UK) was coated with 100 μl per well of capture antibody (mouse anti-human IFN-γ at 4.0 μg/ml), sealed and incubated overnight. Unbound capture antibody was washed from the wells three times, using a wash buffer (0.05% Tween 20 in PBS). Block buffer (1% bovine serum albumin (BSA) in PBS) was then added. After incubation for 1 hour, the wells were washed, and sample culture supernatants or standards were added. A 7-point standard curve (in the range 15.6-1000 pg/ml) was produced from […] recombinant human IFN-γ using 2-fold serial dilutions in reagent diluent (0.1% BSA, 0.05% Tween 20 in tris-buffered saline (20 mM Trizma base, 150 mM NaCl)). The sealed plates were left to incubate for 2 hours.
After further washing, the detection antibody (biotinylated goat anti-human IFN-γ at 175 ng/ml) was added, and the plates sealed and incubated for a further 2 hours. […]

In the case of `Nc1nnc(-c2cccc(Cl)c2Cl)c(N)n1` [Lamotrigine, 3,5-diamino-6-(2,3-dichlorophenyl)-1,2,4-triazine], the “effect on PBMC viability” value (PBMCs) is reported as “did not appear to alter PBMC viability”, the “IFN-γ Concentration” value ([1]; 3 μM, Subject 1, 24 h) is reported as 1153.13 pg/mL and the “IFN-γ Concentration” value ([1]; 3 μM, Subject 2, 24 h) is reported as 1238.68 pg/mL. The “IFN-γ Concentration” value ([1]; 3 μM, Subject 3, 24 h) was 1641.69 pg/mL, the “IFN-γ Concentration” value ([1]; 3 μM, Subject 4, 24 h) was 937.30 pg/mL and the “IFN-γ Concentration” value ([1]; 3 μM, Subject 6, 24 h) was 1305.54 pg/mL. For the same compound, the “IFN-γ Concentration, Mean” value ([1]; 3 μM, mean of five subjects) was 1255.27 pg/mL, the “IFN-γ Concentration” value ([1]; 10 μM, Subject 1, 24 h) was 923.32 pg/mL and the “IFN-γ Concentration” value ([1]; 10 μM, Subject 2, 24 h) was 1307.46 pg/mL. The “IFN-γ Concentration” value ([1]; 10 μM, Subject 3, 24 h) was 1180.21 pg/mL, the “IFN-γ Concentration” value ([1]; 10 μM, Subject 4, 24 h) was 895.04 pg/mL and the “IFN-γ Concentration” value ([1]; 10 μM, Subject 6, 24 h) was 1227.25 pg/mL. The “IFN-γ Concentration, Mean” value ([1]; 10 μM, mean of five subjects) was 1106.66 pg/mL, the “IFN-γ Concentration” value ([1]; 30 μM, Subject 1, 24 h) was 872.99 pg/mL and the “IFN-γ Concentration” value ([1]; 30 μM, Subject 2, 24 h) was 1089.69 pg/mL. The “IFN-γ Concentration” value ([1]; 30 μM, Subject 3, 24 h) was 897.48 pg/mL, the “IFN-γ Concentration” value ([1]; 30 μM, Subject 4, 24 h) was 853.66 pg/mL and the “IFN-γ Concentration” value ([1]; 30 μM, Subject 6, 24 h) was 1191.37 pg/mL. The “IFN-γ Concentration, Mean” value ([1]; 30 μM, mean of five subjects) was 981.04 pg/mL, the “IFN-γ Concentration” value ([1]; 100 μM, Subject 1, 24 h) was 834.21 pg/mL and the “IFN-γ Concentration” value ([1]; 100 μM, Subject 2, 24 h) was 886.41 pg/mL. For the same compound, the “IFN-γ Concentration” value ([1]; 100 μM, Subject 3, 24 h) was 392.96 pg/mL, the “IFN-γ Concentration” value ([1]; 100 μM, Subject 4, 24 h) was 775.28 pg/mL and the “IFN-γ Concentration” value ([1]; 100 μM, Subject 6, 24 h) was 1095.88 pg/mL. The “IFN-γ Concentration, Mean” value ([1]; 100 μM, mean of five subjects) was 796.95 pg/mL, the “IFN-γ Concentration” value ([1]; 300 μM, Subject 4, 24 h) was 495.48 pg/mL and the “IFN-γ Concentration” value ([1]; 300 μM, Subject 6, 24 h) was 798.32 pg/mL. The “IFN-γ Concentration, Mean” value ([1]; 300 μM, mean of two subjects) was 646.90 pg/mL, the “inhibition of IFN-γ production, trend” value ([1]; 300 μM, two subjects, no significance value calculated) was “continuing trend towards further increased inhibition” and the “inhibition of IFN-γ production, significance recalculated without subject 3” value ([1]; 10, 30 and 100 μM, four subjects) was “statistically significant (P<0.05) inhibition of IFN-γ production”. The “inhibition of IFN-γ production (in words)” value ([1]; Experiment 1, human PBMCs) was “inhibits the amount of IFN-γ produced by the PBMCs”, the “reduction in IFN-γ production” value ([1]; Subject 3, 100 μM) was 75% and the “reduction of IFN-γ produced by PBMCs, significance vs control” value ([1]; concentrations of 10 to 100 μM, paired Student's t-test) was “statistically significant (P<0.05) reductions”.
